From patent publication US20100168055A1, “COMBINATION OF MONOSACCHARIDE WITH C-GLYCOSIDE DERIVATIVE AND USE THEREOF” (L'OREAL, priority 2008, published 2010)

Experiments:
[1] = system: keratinocytes (HaCat line); assay: Keratinocyte proliferation in culture medium deficient in growth factors (Cyquant, Nile red, XTT probes); format: cell-based
Description: The keratinocytes (HaCat line) are cultured under two conditions: whole defined culture medium (standard condition) and culture medium deficient in growth factors. This deficient medium gives rise to a controlled delay in cell proliferation. Under these conditions, it is then possible to measure the effects of compounds capable of compensating for the deficiency in growth factors of the culture medium and thus of relaunching the cell multiplication and/or of stimulating cell metabolism.
The keratinocyte proliferation is measured by means of three markers on the same cell population: the level of DNA, which is proportional to the number of cells (Cyquant probe), the level of constituent polar lipids of cell membranes (Nile red probe) and the mitochondrial respiration, which reflects the general cell metabolism (XTT probe).

[2] = system: dermal fibroblasts of the reconstructed skin; assay: Count of dermal fibroblasts in whole reconstructed skin (propidium iodide staining of frozen sections); format: cell-based, human; conditions: 5 mM; within 48 hours of treatment
Source text: Rhamnose was studied on a model of whole reconstructed skin in order to measure its anti-aging efficacy on the dermal compartment.
Briefly, the model of reconstructed skin used is that described by Bell et al. (Bell E. et al., The reconstitution of living skin, J. Invest. Dermatol., 1983, July; 81): it includes a dermal equivalent on which is reconstructed a multistratified epidermis; the dermal equivalent is manufactured from acid-soluble collagen, culture medium containing serum and normal adult human fibroblasts. After 5 days of shrinkage, this equivalent is inoculated with keratinocytes and then cultured for 6 days in immersion and for 7 days in emersion in order to obtain a multistratified and differentiated epidermis having a horny layer.
The reconstructed skin is treated with 5 mM rhamnose for 2 days and 5 days in the culture medium; after the treatment, the reconstructed skins are included in Tissue Tek in order to produce frozen sections 7 μm thick with a cryostat. […] Three frozen sections are prepared at random on each reconstructed skin; on each section, two microscopic fields (25× objective lens) are analysed by fluorescence microscopy and photographed. The dermal fibroblasts are thus counted for each reconstructed skin on six images in total representing the six microscopic fields considered. […]

[3] = system: type I procollagen; assay: Indirect immunofluorescence detection of type I procollagen in the dermis of reconstructed skin; format: cell-based, human
Description: Conventional detection via indirect immunofluorescence of type I procollagen in the dermis of the reconstructed skin was also performed on other series of frozen sections (anti-procoll 1 antibody (MAB 1912 Millipore)+FTIC-coupled conjugate (112-095-068 Jackson Immunoresearch)). In order to obtain bearings within the cutaneous architecture during the microscopic examination of the sections, the cell nuclei of the keratinocytes and fibroblasts are localized by staining them with propidium iodide, as described above. Three frozen sections are prepared at random on each reconstructed skin and on each section, and two microscopic fields (25× objective lens) are analysed by fluorescence microscopy and photographed. The levels of fluorescence proportional to the amount of type I procollagen are compared between the control skin and the skin treated with rhamnose.

[4] = 1 mM, HaCat keratinocytes in medium depleted in growth factors, vs untreated control

For C[C@H](O)[C@H](O)[C@@H](O)[C@@H](O)C=O [rhamnose, L-rhamnose], which “efficacy on keratinocyte proliferation” value ([1]; 500 μM, medium depleted in growth factors) is on record?
Its value is “already show efficacy”.

What about the “level of DNA (Cyquant)” value [1, 4] of the same molecule?
The value was “significantly increased”.

And the “level of polar lipids (Nile red signal)” value [1, 4]?
Its value is “significantly increased”.

And the “mitochondrial respiration (XTT signal)” value [1, 4]?
Its value is “significantly increased”.

And the “number of cells compared with an untreated control (keratinocyte proliferation)” value ([1]; keratinocytes cultured in medium depleted in growth factor)?
The value was “higher number of cells”.

And the “growth of the dermal fibroblasts of the reconstructed skin” value [2]?
Its value is “stimulation of growth”.

And the “synthesis of type I procollagen by the fibroblasts” value ([3]; 1 mM for 120 hours, reconstructed skin)?
Its value is “greatly stimulated”.

And the “green fluorescence (proportional to amount of type I procollagen) compared with control skin” value ([3]; 1 mM for 120 hours, reconstructed skin section)?
Its value is “marked increase”.

And the “procollagen 1 synthesis” value ([3]; 1 mM, reconstructed skin)?
Its value is “stimulation”.

And the “procollagen 1 synthesis” value ([3]; 5 mM, reconstructed skin)?
The value was “stimulation”.
